Several values for one entry are separate records, joined by “and”; a condition that tells them apart may be missing. Equal entries are not always repeated.
Assays:
P2X4 [1] = target: T1, P2X4 (Homo sapiens, UniProt Q99571); assay: Assay A: human P2X4 receptor cell line, FLIPR calcium assay (Fluo-8, agonist Bz-ATP at EC80); format: cell-based; parameters: host or cells: HEK 293 (recombinant, constitutively expressing; with mitochondrial photina in Assay B); settings: HEK human P2X4 cells, Fluo-8 FLIPR; for IC50: Bz-ATP at EC80, average values; for Emax: percentage of maximal inhibition, read-out: human P2X4 Assay A avg Efficacy
T1 sequence (Q99571 1-388): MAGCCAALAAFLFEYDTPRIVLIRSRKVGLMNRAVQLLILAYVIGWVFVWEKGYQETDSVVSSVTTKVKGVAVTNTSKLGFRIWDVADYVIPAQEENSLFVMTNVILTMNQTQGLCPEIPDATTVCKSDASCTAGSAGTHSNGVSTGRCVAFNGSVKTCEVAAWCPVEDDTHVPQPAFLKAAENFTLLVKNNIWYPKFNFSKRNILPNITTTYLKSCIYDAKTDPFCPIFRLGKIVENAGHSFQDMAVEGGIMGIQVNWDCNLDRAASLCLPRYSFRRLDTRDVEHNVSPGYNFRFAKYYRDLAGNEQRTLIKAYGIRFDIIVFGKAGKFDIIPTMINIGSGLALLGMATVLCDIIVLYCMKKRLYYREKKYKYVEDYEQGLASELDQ
Description: A fluorescent imaging plate reader (FLEX/FLIPR station; Molecular Devices) was used to monitor intracellular calcium levels using the calcium-chelating dye Fluo-8 (Molecular Probes). […] Cells expressing purinergic receptors human P2X4 (HEK human P2X4: PerkinElmer, Product No.: AX-015-PCF) were plated at a density of 20,000 cells/well in poly-D-lysine-coated 384-well plates approximately 20 hours before beginning the assay. On the day of the assay, the medium was removed and 30 μl of dye buffer (Hank's balanced salt solution, 10 mM HEPES, 1.8 mM CaCl2), 1 mM MgCl2, 2 mM probenecid, 5 mM D-glucose monohydrate, 5 μM Fluo-8, pH=7.4) was added for 30 min at […] and 5% CO2. The antagonist in probenecid buffer (Hank's balanced salt solution, 10 mM HEPES, 1.8 mM CaCl2, 1 mM MgCl2, 2 mM probenecid, 5 mM D-glucose monohydrate, pH=7.4) was added in a volume of 10 μl and allowed to incubate for 30 min at room temperature. The final assay DMSO concentration is 0.5%. The agonist, Bz-ATP, is added in a volume of 10 μl at a concentration representing the EC80 value. The fluorescence was measured for an interval of 120 sec at 2 sec intervals and analyzed based on the increase in peak relative fluorescence units (RFU) compared to the basal fluorescence. Peak fluorescence was used to determine the response to agonist obtained at each concentration of antagonist by the following equation:
% Response=100*(RFU(drug)−RFU(control))/(RFU(DMSO)−RFU(control))
The compounds were tested in triplicates per plate and mean values were plotted in Excel XLFit to determine IC50 values, percentage of maximal inhibition and the Hill coefficients.

P2X4 [2] = target: T1, P2X4; assay: Assay B: human P2X4 receptor cell line, mitochondrial photina luminescence (agonist Bz-ATP at EC50); format: cell-based; parameters: host or cells: HEK 293 (recombinant, constitutively expressing; with mitochondrial photina in Assay B); settings: HEK human P2X4 cell line, photina luminescence, agonist Bz-ATP at EC50, average; for Emax: read-out: human P2X4 Assay B avg Efficacy
Procedure, shortened: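 Recombinant cell line constitutively expressing human P2X4 and mitochondrial photina photoprotein, reconstituted with coelenterazine. Receptor stimulated with Bz-ATP at EC50; calcium influx read immediately as luminescence.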

IC50 (P2X4 [1]) | Emax (P2X4 [1]) | IC50 (P2X4 [2]) | Emax (P2X4 [2]) | SMILES
0.074 µM | 92% | 0.143 µM | 68% | CC(Oc1ccc(NC(=O)Cc2ccccc2Cl)cc1S(N)(=O)=O)c1ccccc1 (single isomer, unassigned) [Example 148A, 2-(2-Chlorophenyl)-N-[4-(1-phenylethoxy)-3-sulfamoylphenyl]acetamide]
0.029 µM | 96% | 0.079 µM | 81% | CN(C)c1cccc(Oc2ccc(NC(=O)Cc3ccccc3Cl)cc2S(N)(=O)=O)c1 [Example 002, 2-(2-Chlorophenyl)-N-{4-[3-(dimethylamino)phenoxy]-3-sulfamoylphenyl}acetamide]
0.149 µM | 90% | 0.095 µM | 68% | CC(C)c1cccc(Oc2ccc(NC(=O)Cc3ccccc3Cl)cc2S(N)(=O)=O)c1 [Example 004, 2-(2-Chlorophenyl)-N-[4-(3-isopropylphenoxy)-3-sulfamoylphenyl]acetamide]
0.077 µM | 94% | 0.09 µM | 89% | NS(=O)(=O)c1cc(NC(=O)Cc2ccccc2Cl)ccc1Oc1cccc(C(F)(F)F)c1 [Example 005, 2-(2-Chlorophenyl)-N-{3-sulfamoyl-4-[3-(trifluoromethyl)phenoxy]phenyl}acetamide]
0.099 µM | 87% | 0.073 µM | 108% | NS(=O)(=O)c1cc(NC(=O)Cc2ccccc2Cl)ccc1Oc1cccc(OC(F)(F)F)c1 [Example 006, 2-(2-Chlorophenyl)-N-{3-sulfamoyl-4-[3-(trifluoromethoxy)phenoxy]phenyl}acetamide]
0.016 µM | 93% | 0.122 µM | 104% | CC(=O)c1cccc(Oc2ccc(NC(=O)Cc3ccccc3Cl)cc2S(N)(=O)=O)c1 [Example 007, N-[4-(3-Acetylphenoxy)-3-sulfamoylphenyl]-2-(2-chlorophenyl)acetamide]
0.044 µM | 88% | 0.073 µM | 91% | NS(=O)(=O)c1cc(NC(=O)Cc2ccccc2Cl)ccc1Oc1ccc2c(c1)OCO2 [Example 008, N-[4-(1,3-Benzodioxol-5-yloxy)-3-sulfamoylphenyl]-2-(2-chlorophenyl)acetamide]
 | 95% |  |  | [2H]c1c([2H])c([2H])c(Oc2ccc(NC(=O)Cc3ccccc3Cl)cc2S(N)(=O)=O)c(Cl)c1[2H] [Example 263, 2-(2-Chlorophenyl)-N-(4-{[2-chloro(^2H4)phenyl]oxy}-3-sulfamoylphenyl)acetamide]
0.416 µM | 74% |  |  | CC1(C)CC(COc2ccc(NC(=O)Cc3ccccc3Cl)cc2S(N)(=O)=O)CCO1 (stereo not drawn) [Example 265, 2-(2-Chlorophenyl)-N-{4-[(2,2-dimethyltetrahydro-2H-pyran-4-yl)methoxy]-3-sulfamoylphenyl}acetamide]
0.063 µM | 89% |  |  | NS(=O)(=O)c1cc(NC(=O)Cc2ccccc2Cl)ccc1OC[C@H]1[C@@H]2COC[C@@H]21 [Example 266, 2-(2-Chlorophenyl)-N-{4-[(1R,5S,6r)-3-oxabicyclo[3.1.0]hex-6-ylmethoxy]-3-sulfamoylphenyl}acetamide]
4.44 µM | 76% |  |  | NS(=O)(=O)c1cc(NC(=O)Cc2ccccc2Cl)ccc1OCC1(Cl)CCOCC1 [Example 267, 2-(2-Chlorophenyl)-N-{4-[(4-chlorotetrahydro-2H-pyran-4-yl)methoxy]-3-sulfamoylphenyl}acetamide]
 | 77% |  |  | NS(=O)(=O)c1cc(NC(=O)Cc2ccccc2Cl)ccc1OCC1COCCO1 (stereo not drawn) [Example 268, 2-(2-Chlorophenyl)-N-[4-(1,4-dioxan-2-ylmethoxy)-3-sulfamoylphenyl]acetamide]
 | 82% |  |  | NS(=O)(=O)c1cc(NC(=O)Cc2ccc(F)cc2Cl)ccc1OCC1CCOCC1 [Example 282, 2-(2-Chloro-4-fluorophenyl)-N-[3-sulfamoyl-4-(tetrahydro-2H-pyran-4-ylmethoxy)phenyl]acetamide]
8.05 µM | 62% |  |  | NS(=O)(=O)c1cc(NC(=O)Cc2ccccc2Cl)ccc1Oc1ccc(C(F)(F)F)nc1 [Example 283, 2-(2-Chlorophenyl)-N-(3-sulfamoyl-4-{[6-(trifluoromethyl)pyridin-3-yl]oxy}phenyl)-acetamide]
10.9 µM | 82% |  |  | NS(=O)(=O)c1cc(NC(=O)Cc2ccccc2Cl)ccc1Oc1cc(C(F)(F)F)c(Cl)cn1 [Example 284, 2-(2-Chlorophenyl)-N-(4-{[5-chloro-4-(trifluoromethyl)pyridin-2-yl]oxy}-3-sulfamoyl-phenyl)acetamide]
0.237 µM | 55% |  |  | NS(=O)(=O)c1cc(NC(=O)Cc2ccccc2Cl)ccc1Oc1cnc(Cl)c(F)c1 [Example 286, N-{4-[(6-Chloro-5-fluoropyridin-3-yl)oxy]-3-sulfamoylphenyl}-2-(2-chlorophenyl)-acetamide]
0.187 µM | 58% |  |  | NS(=O)(=O)c1cc(NC(=O)Cc2ccccc2Cl)ccc1OCC1(O)CCC(F)(F)CC1 [Example 287, 2-(2-Chlorophenyl)-N-{4-[(4,4-difluoro-1-hydroxycyclohexyl)methoxy]-3-sulfamoyl-phenyl}acetamide]
0.988 µM | 57% |  |  | NS(=O)(=O)c1cc(NC(=O)Cc2ccccc2Cl)ccc1OCC1(O)CCCCC1 [Example 288, 2-(2-Chlorophenyl)-N-{4-[(1-hydroxycyclohexyl)methoxy]-3-sulfamoylphenyl}-acetamide]
> 25 µM | 34% |  |  | NS(=O)(=O)c1cc(NC(=O)Cc2ccccc2F)cc(F)c1Oc1cccc(Cl)c1 [Example 289, N-[4-(3-Chlorophenoxy)-3-fluoro-5-sulfamoylphenyl]-2-(2-fluorophenyl)acetamide]
16 µM | 66% |  |  | NS(=O)(=O)c1cc(NC(=O)Cc2ccccc2C(F)F)cc(F)c1Oc1cccc(Cl)c1 [Example 290, N-[4-(3-Chlorophenoxy)-3-fluoro-5-sulfamoylphenyl]-2-[2-(difluoromethyl)-phenyl]acetamide]
10.5 µM and > 25 µM | 57% |  |  | NS(=O)(=O)c1cc(NC(=O)Cc2ccccc2Cl)cc(F)c1Oc1cccc(Cl)c1 [Example 291, N-[4-(3-Chlorophenoxy)-3-fluoro-5-sulfamoylphenyl]-2-(2-chlorophenyl)acetamide]
15.1 µM | 69% |  |  | NS(=O)(=O)c1cc(NC(=O)Cc2cc(F)ccc2Cl)cc(F)c1Oc1cccc(Cl)c1 [Example 292, 2-(2-Chloro-5-fluorophenyl)-N-[4-(3-chlorophenoxy)-3-fluoro-5-sulfamoyl-phenyl]acetamide]
0.072 µM | 67% |  |  | NS(=O)(=O)c1cc(NC(=O)Cc2ccccc2F)cnc1Oc1cccc(Cl)c1 [Example 293, N-[6-(3-Chlorophenoxy)-5-sulfamoylpyridin-3-yl]-2-(2-fluorophenyl)acetamide]
0.107 µM | 84% |  |  | NS(=O)(=O)c1cc(NC(=O)Cc2ccccc2C(F)(F)F)cnc1Oc1cccc(Cl)c1 [Example 294, N-[6-(3-Chlorophenoxy)-5-sulfamoylpyridin-3-yl]-2-[2-(trifluoromethyl)phenyl]-acetamide]
0.155 µM | 85% |  |  | NS(=O)(=O)c1cc(NC(=O)Cc2ccccc2C(F)F)cnc1Oc1cccc(Cl)c1 [Example 295, N-[6-(3-Chlorophenoxy)-5-sulfamoylpyridin-3-yl]-2-[2-(difluoromethyl)phenyl]-acetamide]
0.059 µM | 78% |  |  | NS(=O)(=O)c1cc(NC(=O)Cc2cc(F)ccc2Cl)cnc1Oc1cccc(Cl)c1 [Example 296, 2-(2-Chloro-5-fluorophenyl)-N-[6-(3-chlorophenoxy)-5-sulfamoylpyridin-3-yl]-acetamide]
